The text below walks through data of PMC3526597, “High-Glucose-Induced Endothelial Cell Injury Is Inhibited by a Peptide Derived from Human Apolipoprotein E” (PLoS ONE, 2012).

Peptide text beside a SMILES is read from it.

The nature of this series: Corneal penetration assay (aqueous humor level after eye drop). The format is in vivo, mouse. As to conditions: for Total / Measure concentration: mouse aqueous humor, UPLC-MS; for Measure concentration: sample mixed with 1 ml 0.1% formic acid. The procedure: The apoEdp peptide (LRKLRKRLLLRKLRKRLL) is rich in cationic amino acids lysine and arginine. ApoEdp is more cationic than HIV-1 Tat cell penetrating peptide (Table 1). We hypothesized that apoEdp could act as a corneal penetrating peptide.
Mouse eyes were treated with 1% apoEdp drops. At 0, 1, 2, 3, hours post-treatment, mice were sacrificed and eyes were enucleated. The globes were washed with sterile PBS three times and aqueous humor was aspirated using a 27-gauge needle and 1 mL syringe. The mouse aqueous humor samples were mixed with 1 ml of 0.1% formic acid solution and allowed to stand for 5 minutes. The samples were filtered with a 0.2-micron filter and analyzed using a Waters Acquity UPLC system (Milford, MA) with mass spectrophotometrical detection. […] These peaks included 483.9 m/z 604.4 m/z, and 805.6 m/z. We used the […] peak for the analysis because it was the strongest. For the UPLC analysis, we used a BEH300 C4 column 2.1 mm×100 mm×1.7 µm. A 2 component mobile phase was used with component 1:0.1% formic Acid, and Component 2: Acetonitrile with 0.1% formic acid. The flow rate was 0.2 ml/min and gradient elution was used with a linear gradient.

Where [1] appears, read: 2 hours after 1% apoEdp eye drop, left eye.
Where [2] appears, read: 2 hours after 1% apoEdp eye drop, right eye.
The mark [3] stands for this setting: 3 hours after 1% apoEdp eye drop, left eye.
The mark [4] stands for this setting: 3 hours after 1% apoEdp eye drop, right eye.

Regarding `CC(=O)N[C@@H](CC(C)C)C(=O)N[C@@H](CCCNC(=N)N)C(=O)N[C@@H](CCCCN)C(=O)N[C@@H](CC(C)C)C(=O)N[C@@H](CCCNC(=N)N)C(=O)N[C@@H](CCCCN)C(=O)N[C@@H](CCCNC(=N)N)C(=O)N[C@@H](CC(C)C)C(=O)N[C@@H](CC(C)C)C(=O)N[C@@H](CC(C)C)C(=O)N[C@@H](CCCNC(=N)N)C(=O)N[C@@H](CCCCN)C(=O)N[C@@H](CC(C)C)C(=O)N[C@@H](CCCNC(=N)N)C(=O)N[C@@H](CCCCN)C(=O)N[C@@H](CCCNC(=N)N)C(=O)N[C@@H](CC(C)C)C(=O)N[C@@H](CC(C)C)C(N)=O` [apoEdp] (Ac-LRKLRKRLLLRKLRKRLL-NH2), the “time to reach the anterior chamber of the eye” value (applied topically (1% eye drop), mouse eyes) is not above 3 h. Further, the Total reads like this: under setting [1], 3.89 ng; under setting [2], 5.9 ng; under setting [3], 58.08 ng; under setting [4], 36.3 ng. For the same compound, the Measure concentration worked out at 0.004 µg/mL under setting [1], 0.006 µg/mL under setting [2], 0.058 µg/mL under setting [3] and 0.036 µg/mL under setting [4].
